Source: patent US20250282770A1, “BIOLUMINESCENT PROBES TO TRACK STEM CELLS IN VIVO” (THE BOARD OF TRUSTEES OF THE UNIVERSITY OF ILLINOIS, priority 2024, published 2025)

What was measured:
[1] = tested on: ALDH1A1 activity; test: High-fat diet inflammatory model, orthotopic 4T1-Luc tumors, AlDeLuc imaging after L-NMMA; assay type: in vivo, BALB/c mice; conditions: control group (water gavage), AlDeLuc 0.55 mg/kg, 40 min
Protocol: Finally, to examine how NO influences ALDH1A1 activity in vivo we placed BALB/c mice (female, 5-7 weeks old) on a high-fat diet for 40 weeks to induce an inflammatory response through elevated NO production. This period consists of a ˜20-week priming period prior to inoculation of the animals with 4T1-Luc cells at the mammary fat pad. At this point, the mice were randomized into two groups. The treatment group was administered L-NMMA (50 mg/kg), whereas the control group received water via oral gavage for 20 days. The day after the final treatment, mice from both conditions were treated systemically with AlDeLuc, and the bioluminescence was monitored (FIG. 5e). […] At the completion of the diet study, animals were sacrificed, and their tumors were excised for further immunohistochemical analysis.
Generation of an Orthotopic 4T1-Luc Breast Cancer Model for Diet Studies. Female BALB/c mice (˜6 weeks old) were inoculated with 4T1-Luc cells (50 μL of 1×10^5 cells in 1:1 v/v serum-free RPMI 1640 media and Matrigel) via subcutaneous injections into the mammary fat pad. Tumor volumes were measured using the caliper method every three days. Body weight was measured daily over the course of the experiment.

[2] = Evaluation of acetal response to 1 M HCl; assay type: physicochemical; conditions: 100 μM; 1 M HCl for one hour; ALDH1A1 0.4 μM; compared among 9, 10, 11
Protocol: Evaluation of Acetal Response to 1 M HCl. To identify the most robust turn-on to be utilized for this study, compounds 9, 10, and 11 were tested for their ability to be deprotected under acidic conditions. Each acetal was dissolved in DMSO and subjected to equal-volume 1 M HCl and incubated at room temperature for 60 minutes. After this time, each solution was neutralized with 1 M NaOH and diluted to a concentration of 1 mM with PBS. In a black 96-well plate, PBS, NAD^+ (2.5 mM), ALDH1A1 (0.4 μM), and either compound 9, 10 or 11 (100 μM) were added. After 5 minutes, each well was treated with ATP-MgSO4 (45 μL, prepared by mixing 17.78 mM ATP-Mg and 35.56 mM MgSO4 in a 1:1 ratio in PBS buffer) and luciferase (5 μL, 1 mg/mL in PBS containing 10% glycerol) to initiate bioluminescence production. Light was collected immediately after mixing, and the signal enhancement was determined relative to control wells containing no probe or enzymes. The total volume of each well was 200 μL (PBS (pH 7.4) with 0.5% DMSO). All data reported as the mean±standard deviation (n=4).

[3] = molecular target: T1, ALDH1A1 (Mus musculus, UniProt P24549); test: Validation of ALDH-mediated activation of AlDeLuc in heterotopic breast cancer model via DEAB inhibition; assay type: in vivo, BALB/c mice; design: from tissue; host or cells: 4T1-Luc tumours in BALB/c mice; conditions: AlDeLuc alone 0.55 mg/kg; 40 min after injection
T1 sequence (P24549 1-501): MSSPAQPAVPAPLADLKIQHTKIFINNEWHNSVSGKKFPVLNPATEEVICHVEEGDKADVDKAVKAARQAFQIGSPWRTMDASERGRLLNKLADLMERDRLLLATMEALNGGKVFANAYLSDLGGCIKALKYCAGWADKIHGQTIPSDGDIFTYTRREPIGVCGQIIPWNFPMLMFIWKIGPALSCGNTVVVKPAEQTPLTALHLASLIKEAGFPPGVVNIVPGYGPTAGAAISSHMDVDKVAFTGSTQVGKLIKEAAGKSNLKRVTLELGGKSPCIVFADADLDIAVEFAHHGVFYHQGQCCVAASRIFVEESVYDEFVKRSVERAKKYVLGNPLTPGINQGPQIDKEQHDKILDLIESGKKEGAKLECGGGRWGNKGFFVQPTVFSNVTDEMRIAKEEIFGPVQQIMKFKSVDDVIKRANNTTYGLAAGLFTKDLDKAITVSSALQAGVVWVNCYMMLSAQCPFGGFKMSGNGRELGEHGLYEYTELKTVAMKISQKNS
Protocol: Validation of ALDH-mediated Activation of AlDeLuc in a Heterotopic Breast Cancer Model via DEAB Inhibition. BALB/c mice bearing 4T1-Luc tumors were anesthetized using isoflurane (1-3% for maintenance; up to 5% for induction) in oxygen from a precision vaporizer. After testing to ensure animals are fully under anesthesia, each mouse was administered AlDeLuc via retro-orbital injection (0.55 mg/kg, 1:19 v/v DMSO:PBS). Images were captured using the IVIS imaging system 40 minutes after injection. Bioluminescence light was captured in open mode (no filters were applied). ROIs were drawn around each tumor and summed for each animal. The signal intensity was quantified using the Living Image Analysis Software. After two days, the same animals were anesthetized and co-administered a solution of AlDeLuc and DEAB (0.55 mg/kg and 93 mg/kg respectively, 1:19 v/v DMSO:PBS). After the allotted 40 minutes, the images were captured using the IVIS imaging system. Bioluminescence was collected in open mode (no filters were applied). ROIS were drawn around each tumor and summed for each animal. The signal intensity was quantified using the Living Image Analysis Software.

[4] = tested on: 4T1-Luc tumors; test: Bioluminescence imaging of heterotopic breast cancer model with AlDeLuc; assay type: in vivo, BALB/c mice; conditions: 0.55 mg/kg retro-orbital
Protocol: Generation of 4T1-Luc Breast Cancer Model. Female or male BALB/c mice (˜6 weeks old) were inoculated with 4T1-Luc cells (50 μL of 1×10^6 cells in 1:1 v/v serum-free RPMI 1640 media and Matrigel) via subcutaneous injections into each flank. Tumor volumes were measured using the caliper method every three days. Body weight was measured daily over the course of the experiment. After two weeks, the tumor was in the 200 to 400 mm^3 range.
Bioluminescence Imaging of a Heterotopic Breast Cancer Model with AlDeLuc. BALB/c mice bearing 4T1-Luc tumors were anesthetized using isoflurane (1-3% for maintenance; up to 5% for induction) in oxygen from a precision vaporizer. After testing to ensure animals are fully under anesthesia, each mouse was administered a control solution of 1:19 v/v DMSO:PBS via retro-orbital injection. After 40 minutes, the mice were imaged on the IVIS imaging system. Luminescence was collected using an open filter set. ROIs were drawn around both the left and right tumors, and the intensity was calculated using the Living Image Analysis software.
The following day the mice were anesthetized, and administered AlDeLuc (0.55 mg/kg, 1:19 v/v DMSO:PBS). […] Luminescence was collected using an open filter set. ROIs were drawn around both the left and right tumors, and the intensity was calculated using the Living Image Analysis software.

## CCN(CC)c1ccc2nc(C3=N[C@@H](C(OC)OC)CS3)sc2c1 [AlDeLuc, (S)-2-(4-(dimethoxymethyl)-4,5-dihydrothiazol-2-yl)-N,N-diethylbenzo[d]thiazol-6-amine]
[1]
  total luminescent counts: 1.7±0.8×10^4
[2]
  acid resistance of acetal (bioluminescence emission after HCl, neutralization, ALDH1A1 and luciferase): most acid-resistant
[3]
  total luminescent counts: 2.18±0.60×10^4
[4]; 4T1-Luc tumors
  time at which tumor bioluminescence signal plateaued: 40 min
[4]; 24 hours after administration
  signal at the 24-hour mark: complete clearance
